Measurements from patent US12329765B2, “Targeted nanoparticle for the treatment of traumatic brain injury and other CNS diseases” (priority 2021, dated 2025).

How the values were obtained:
[1] = in vivo; cited from earlier work
[2] = Minocycline forced degradation (acid, base, H2O2, light) by HPLC; assay type: physicochemical
Text: Measuring the drug molecule's stability is essential as it directly impacts the formulation strategy when designing the drug-loaded nanoparticle.

[3] = In vivo toxicity: gross observable behavioral effects (Irwin); parameters: species or system rat; conditions: 35 days
[4] = 35 day observation
Protocol: Before treatment, body weight was determined for all the animals. During the course of observation period of 35 days, the animals were followed up twice daily for symptoms of any adverse effect and were physically examined for the sign of morbidity throughout the study period.
On day 0, 15 and 35, all the animals were weighed, and their weights were recorded.

[5] = rat models; cited from earlier work

| SMILES | time to disappearance from the cochlea [1] [h] | recovery at 1 h, 100 μg/mL ([2]; 1 M HCl solution, HCl (1 M, 1 h RT)) [%] | recovery at 1 h, 100 μg/mL ([2]; 1 M NaOH solution, NaOH (1 M, 1 h RT)) [%] | recovery at 24 h, 100 μg/mL ([2]; UV Light (24 h light exposure)) [%] | gross observable behavioral parameters (alertness, visual placing, passivity, spontaneous motor activity, touch response) [3] | body weight versus saline treated control group [4] | half-life [5] [h] |
| --- | --- | --- | --- | --- | --- | --- | --- |
| C[C@H]1C[C@H]2[C@@H]3CCC4=CC(=O)C=C[C@]4(C)[C@@]3(F)[C@@H](O)C[C@]2(C)[C@@]1(O)C(=O)COP(=O)(O)O [free betamethasone phosphate, betamethasone phosphate] | ≤ 12 |  |  |  |  |  |  |
| CN(C)c1ccc(O)c2c1C[C@H]1C[C@H]3[C@H](N(C)C)C(O)=C(C(N)=O)C(=O)[C@@]3(O)C(O)=C1C2=O [minocycline, Minocycline] |  | 88.9 | 74 | 98.54 ± 0.71 | mild changes in a few behavioral parameters | no reduction in body weight | 2 to 3 |
